According to patent publication US11535630B2, “Apelin receptor (APJ) agonists and uses thereof” (Research Triangle Institute, priority 2015, dated 2022):

What follows are compounds tested against T1, apelin receptor (APJ) (Homo sapiens, UniProt P35414) (assay: In vitro apelin agonist activity (methods of Giddings et al., Apelin-13 as positive control)). Settings: in vitro apelin agonist activity, methods of Giddings et al., Apelin-13 as positive control; read-out: EC50 (nM) Ave.
T1 sequence (P35414 1-380): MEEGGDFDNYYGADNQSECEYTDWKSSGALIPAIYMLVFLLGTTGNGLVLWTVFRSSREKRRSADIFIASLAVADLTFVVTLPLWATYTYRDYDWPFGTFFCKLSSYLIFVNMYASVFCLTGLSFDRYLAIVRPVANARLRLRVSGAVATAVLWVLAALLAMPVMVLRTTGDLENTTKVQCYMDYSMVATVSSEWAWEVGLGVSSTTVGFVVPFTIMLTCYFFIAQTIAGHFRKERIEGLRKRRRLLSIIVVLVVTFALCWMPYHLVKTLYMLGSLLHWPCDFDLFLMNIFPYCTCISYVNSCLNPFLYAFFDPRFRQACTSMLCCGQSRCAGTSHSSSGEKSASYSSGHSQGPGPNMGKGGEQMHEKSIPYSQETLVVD
Type: cell-based
From the text: Characterization of the Apelin Agonist Activity of the Compounds
1:39-47, the contents of which are hereby incorporated by reference in its entirety. Using the methods described in Giddings et al. and Apelin-13 as a positive control.

| SMILES | EC50 [nM] |
| --- | --- |
| O=C(O)C[C@H](CCN1C(=O)CCCC1=O)NC(=O)c1cc(-c2ccccc2C(F)(F)F)n(C2CCCC2)n1 [compound 604, (3S)-3-({1-cyclopentyl-5-[2-(trifluoromethyl)phenyl]-1H-pyrazol-3-yl}formamido)-5-(2,6-dioxopiperidin-1-yl)pentanoic acid] | 55 |
| O=C(O)C[C@H](CCN1CCC[C@H](F)C1)NC(=O)c1cc(-c2ccccc2C(F)(F)F)n(C2CCCC2)n1 [compound 583, (3S)-3-({1-cyclopentyl-5-[2-(trifluoromethyl)phenyl]-1H-pyrazol-3-yl}formamido)-5-[(3S)-3-fluoropiperidin-1-yl]pentanoic acid] | 302 |
| CC(C)Cn1nc(C(=O)N[C@@H](CCN2CCCC(F)(F)C2)CC(=O)O)cc1-c1ccccc1C(F)(F)F [compound 565, (3S)-5-(3,3-difluoropiperidin-1-yl)-3-{[1-(2-methylpropyl)-5-[2-(trifluoromethyl)phenyl]-1H-pyrazol-3-yl]formamido}pentanoic acid] | 544 |
| O=C(C[C@H](CCN1CCCCC1)NC(=O)c1cc(-c2ccsc2C(F)(F)F)n(C2CCCC2)n1)NC1CCC1 [compound 434] | 641 |
| CN(CC[C@@H](CC(=O)NC1CCC1)NC(=O)c1cc(-c2ccccc2C(F)(F)F)n(C2CCCC2)n1)C1CCCC1 [compound 490, (3S)-N-cyclobutyl-5-[cyc1opentyl(methyl)amino]-3-({1-cyclopentyl-5-[2(trifluoromethyl)phenyl]-1H-pyrazol-3-yl}formamido)pentanamide] | 10.3 |
| O=C(C[C@H](CCN1CCCCC1)NC(=O)c1cc(-c2cncnc2)n(C2CCCC2)n1)NC1CCC1 [compound 368, (3S)-N-cyclobutyl-3-{[1-cyclopentyl-5-(pyrimidin-5-yl)-1H-pyrazol-3-yl]formamido}-5-(piperidin-1-yl)pentanamide] | > 10000 |
| COc1cccc(OC)c1-c1cc(C(=O)N[C@@H](CCN2CC3(CCC3)C2)CC(=O)NC2CCC2)nn1C1CCCC1 [compound 349] | 197 |
| O=C(C[C@H](CCNC(=O)C1COC1)NC(=O)c1cc(-c2ccccc2C(F)(F)F)n(C2CCCC2)n1)NC1CCC1 [compound 539, (3S)-N-cyclobutyl-3-({1-cyclopentyl-5-[2-(trifluoromethyl)phenyl]-1H-pyrazol-3-yl}formamido)-5-(oxetan-3-ylformamido)pentanamide] | 176 |
| COc1cccc(OC)c1-c1cc(C(=O)N[C@@H](CCc2ccccc2)C(=O)Nc2nnn[nH]2)nn1C1CCCC1 [compound 395, (2S)-2-{[1-cyclopentyl-5-(2,6-dimethoxyphenyl)-1H-pyrazol-3-yl]formamido}-4-phenyl-N-(1H-1,2,3,4-tetrazol-5-yl)butanamide] | > 10000 |
| CC(F)(F)c1ccccc1-c1cc(C(=O)N[C@@H](CCN2CCC(=O)CC2(C)C)CC(=O)O)nn1C1CCCC1 [compound 611, (3S)-3-({1-cyclopentyl-5-[2-(1,1-difluoroethyl)phenyl]-1H-pyrazol-3-yl}formamido)-5-(2,2-dimethyl-4-oxopiperidin-1-yl)pentanoic acid] | 509 |
| CCN(C(=O)c1cc(-c2c(F)cccc2OC)n(C2CCCC2)n1)[C@@H](CCN1CCCCC1)CC(=O)NC1CCC1 [compound 345, (3S)-N-cyclobutyl-3-{1-[1-cyclopentyl-5-(2-fluoro-6-methoxyphenyl)-1H-pyrazol-3-yl]-N-ethylformamido}-5-(piperidin-1-yl)pentanamide] | > 10000 |
| O=C(O)C[C@H](CCN1CC[C@H](F)C1)NC(=O)c1cc(-c2ccccc2C(F)(F)F)n(C2CCCC2)n1 [compound 585, (3S)-3-({1-cyclopentyl-5-[2-(trifluoromethyl)phenyl]-1H-pyrazol-3-yl}formamido)-5-[(3S)-3-fluoropyrrolidin-1-yl]pentanoic acid] | 654 |
| CN(C(=O)C[C@H](CCN1CCCC(F)(F)C1)NC(=O)c1cc(-c2ccccc2C(F)(F)F)n(C2CCCC2)n1)c1nccs1 [compound 431, (3S)-3-({1-cyclopentyl-5-[2-(trifluoromethyl)phenyl]-1H-pyrazol-3-yl}formamido)-5-(3,3-difluoropiperidin-1-yl)-N-methyl-N-(1,3-thiazol-2-yl)pentanamide] | 22.5 |
| CCc1ccccc1-c1cc(C(=O)N[C@@H](CCN2CCC(F)(F)CC2)CC(=O)NC2CCC2)nn1C1CCCC1 [compound 411, (3S)-N-cyclobutyl-3-{[1-cyclopentyl-5-(2-ethylphenyl)-1H-pyrazol-3-yl]formamido}-5-(4,4-difluoropiperidin-1-yl)pentanamide] | 14.5 |
| COc1cccc(OC)c1-c1cc(C(=O)N[C@@H](CCc2ccccc2)CC(=O)O)nn1-c1ccc(F)cc1 [compound 299, (3S)-3-{[5-(2,6-dimethoxyphenyl)-1-(4-fluorophenyl)-1H-pyrazol-3-yl]formamido}-5-phenylpentanoic acid] | 2910 |
| COc1cccc(OC)c1-c1cc(C(=O)N[C@@H](CCN2CCCCC2)Cc2nccs2)nn1C1CCCC1 [compound 448, 1-cyclopentyl-5-(2,6-dimethoxyphenyl)-N-[(2S)-4-(piperidin-1-yl)-1-(1,3-thiazol-2-yl)butan-2-yl]-1H-pyrazole-3-carboxamide] | 1340 |
| CN(C[C@@H](CC(=O)O)NC(=O)c1cc(-c2ccccc2C(F)(F)F)n(C2CCCC2)n1)C1CCCCC1 [compound 533, (3R)-4-[cyclohexyl(methy)amino1]-3-({1-cyclopentyl-5-[2-(trifluoromethyl)phenyl]-1H-pyrazol-3-yl}formamido)butanoic acid] | 822 |
| CC(F)(F)c1ccccc1-c1cc(C(=O)N[C@@H](CCN2CCC[C@@H](F)C2)CC(=O)O)nn1C1CCCC1 [compound 593, (3S)-3-({1-cyclopentyl-5-[2-(1,1-difluoroethyl)phenyl]-1H-pyrazol-3-yl}formamido)-5-[(3R)-3-fluoropiperidin-1-yl]pentanoic acid] | 79 |
| N#CC1CCN(CC[C@@H](CC(=O)NC2CCC2)NC(=O)c2cc(-c3ccccc3C(F)(F)F)n(C3CCCC3)n2)C1 (stereo partly drawn) [compound 481, (3S)-5-(3-cyanopyrrolidin-1-yl)-N-cyclobutyl-3-({1-cyclopentyl-5-[2(trifluoromethyl)phenyl]-1H-pyrazol-3-yl}formamido)pentanamide] | 1.96 |
| COc1cccc(OC)c1-c1cc(C(=O)N[C@@H](CCc2ccc(F)cc2)CC(=O)Nc2nccs2)nn1C1CCCC1 [compound 417, (3S)-3-{[1-cyclopentyl-5-(2,6-dimethoxyphenyl)-1H-pyrazol-3-yl]formamido}-5-(4-fluorophenyl)-N-(1,3-thiazol-2-yl)pentanamide] | 36 |
| COc1cccc(F)c1-c1cc(C(=O)N[C@@H](CCN2CCCCC2)CC(=O)NC2CCC2)nn1C1CCCC1 [compound 372, (3S)-N-cyclobutyl-3-{[1-cyclopentyl-5-(2-fluoro-6-methoxyphenyl)-1H-pyrazol-3-yl]formamido}-5-(piperidin-1-yl)pentanamide] | 90 |
| C[C@@H](c1nnn[nH]1)[C@H](CCN1CC2C(C1)C2(F)F)NC(=O)c1cc(-c2ccccc2C(F)(F)F)n(C2CCCC2)n1 (stereo partly drawn) [compound 638, 1-cyclopentyl-N-[(3S,4R)-1-{6,6-difluoro-3-azabicyclo[3.1.0]hexan-3-yl}-4-(1H-1,2,3,4-tetrazol-5-yl)pentan-3-yl]-5-[2-(trifluoromethyl)phenyl]-1H-pyrazole-3-carboxamide] | 14 |
